Measurements taken from patent US6713445B1, “Peptides for treatment of HIV infection” (Advanced Immuni T, Inc., priority 1998, dated 2004).
Where a SMILES comes first, the peptide text is derived from it.

Test system: GP120-Mediated Neurotoxicity
Test: Neuronal survival assay with 1 pM gp120 (count of neuron-specific enolase positive cells)
Format: cell-based
Details: together with 1 pM gp120 (RF isolate), primary cultures of mixed rat neurons glia; for inhibition of neuronal death caused by gp120 (in words): dose-dependent; for protection against gp120 neuronal death: peptide at 10 μM
From the text: Materials: A gp120 isolate RFII was obtained from Dr. P. Nara, NCI, NIH. All of the gp120's are purified, >95% homogeneous and previously tested for neurotoxicity with cultured neurons and were used at 1 pM final concentration in cultures of neurons. Peptides of the formula Ile-Lys-Glu-Tyr-Phe-Thr-Ser (SEQ. ID NO: 2), Ile-Lys-Glu-Tyr-Phe (SEQ. ID NO: 3), and Leu-Glu-Ser-Tyr-Thr (SEQ. ID NO: 1), were obtained from Peninsula Labs, CA. and synthesized by solid-phase Merrified methods and purified to greater than 95% homogeneity by two HPLC methods and structure confirmed by MASS Spectroscopy Analysis.
Neuronal cell culture: Dissociated hippocampal cultures are prepared from neonatal (day 2) rat cortex and hippocampus by known methods. Sterilely dissected brain tissue is minced and treated with 0.125% trypsin for 30 minutes then gently triturated with fire-polished Pasteur pipes and plated in six-well trays (35 mm^2) at low density (50,000 cells/35 mm^2 dish) upon confluent layers of astrocytes in medium containing D-MEM, penicillin (25 U/ml), streptomycin ([…]), D-glucose (0.6%), and 10% heat-inactivated fetal calf serum (HyClone Laboratories), supplemented with insulin, transferrin, selenium, corticosterone, and triiodothyronine. Medium is changed after 3 days. At 6 days, half the medium is exchanged for fresh medium. The astrocyte feeder layers were prepared from the cortexes of neonatal rats following dissection and trituration. Plating was 2.5×10^2 cells per well. Feeder layers were grown in Eagles's minimal essential medium (Formula No. 82-0234DJ, Gibco) with 10% fetal calf serum until confluent (7-14 days). With this medium the feeder cultures were free of neurons and consisted of flat cells that were stained by antibodies to glial fibrillary acidic protein, a standard immunocytochemical marker for astroglia. When hippocampal or cortical cells were added to the confluent feeder layer, the medium was changed to the following composition: 5% horse serum and MEM supplement with defined medium components. The hippocampal or cortical cultures were treated with 5′-fluoro-2′-deoxyuridine (15 ug/ml plus uridine, 35 ug/ml) to suppress the overgrowth of background cells and allow the establishment of neurons. The neurons in these cultures are post-mitotic. The neuronal cultures were allowed to grow for 1 week prior to the beginning of the experimental period. Before treating the cultures, a complete change of medium was given.
Neuronal survival assay: GP120's, with or without added peptides, were diluted in phosphate buffered saline and added to the cultures, which were treated only once for a four day period. At termination, cultures were fixed with glutaraldehyde as previously described. At the end of the test period, neuronal survival was assessed by immunohistochemical detection of neuron-specific enolase positive cells (neurons). Cultures were counted in a blinded fashion without knowledge of sample treatment in 40 fields at pre-determined coordinate locations. The total area counted is 50 mm^2. Each value reported is the mean±the standard error of 3-4 determinations. Control (saline treated) wells from these cultures have 395±20 neurons. Statistical comparisons between experimental and control culture neuronal cell counts are via analysis of variance with the Student-Newman-Kuels multiple comparison of means test.
The dotted line in FIG. 1 represents the mean number of neurons in control cultures.

Molecule	inhibition of neuronal death caused by gp120 (in words)	protection against gp120 neuronal death	EC50 (read-out: EC50 for preventing neuronal loss caused by gp120, four day period)
Leu-Glu-Ser-Tyr-Thr (LESYT; mammalian)	preventing neuronal loss	partially protective	
Ile-Lys-Glu-Tyr-Phe (IKEYF; mammalian) [shorter pentapeptide used to show specificity]	inactive		
CC[C@H](C)[C@H](N)C(=O)N[C@@H](CCCCN)C(=O)N[C@@H](CCC(=O)O)C(=O)N[C@@H](Cc1ccc(O)cc1)C(=O)N[C@@H](Cc1ccccc1)C(=O)N[C@H](C(=O)N[C@@H](CO)C(=O)O)[C@@H](C)O [IKEYFTS, Ile-Lys-Glu-Tyr-Phe-Thr-Ser] (H-IKEYFTS-OH; N-terminus and C-terminus assumed)	preventing neuronal loss	fully protective	0.1 µM
